# Assay results as given in patent US20020026053A1, “Novel 3-(substituted) -2- indolinones compounds and use thereof as inhibitors of protein kinase activity” (priority 1997, published 2002).
# Molecular target: T1, Met receptor (EGFR/Met chimeric cells, EMR) (Homo sapiens, UniProt P08581)
# T1 construct: expressed in transfected cells; the other entry of the earlier key: EGFR (P00533, Epidermal growth factor receptor)
# Assay: Met Autophosphorylation Assay
# Type: biochemical
# Summary of the method: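 Transiently transfected EGFR/Met chimeric (EMR) cells were lysed in HNTG with 1 mM PMSF. Met was captured on plates coated with goat anti-rabbit IgG, then rabbit anti-Met (C-28), using 90 μg lysate/100 μl for 60 min at room temperature. Phosphotyrosine was read by ELISA.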
# T1 sequence (P08581 with tags, fused parts or gaps): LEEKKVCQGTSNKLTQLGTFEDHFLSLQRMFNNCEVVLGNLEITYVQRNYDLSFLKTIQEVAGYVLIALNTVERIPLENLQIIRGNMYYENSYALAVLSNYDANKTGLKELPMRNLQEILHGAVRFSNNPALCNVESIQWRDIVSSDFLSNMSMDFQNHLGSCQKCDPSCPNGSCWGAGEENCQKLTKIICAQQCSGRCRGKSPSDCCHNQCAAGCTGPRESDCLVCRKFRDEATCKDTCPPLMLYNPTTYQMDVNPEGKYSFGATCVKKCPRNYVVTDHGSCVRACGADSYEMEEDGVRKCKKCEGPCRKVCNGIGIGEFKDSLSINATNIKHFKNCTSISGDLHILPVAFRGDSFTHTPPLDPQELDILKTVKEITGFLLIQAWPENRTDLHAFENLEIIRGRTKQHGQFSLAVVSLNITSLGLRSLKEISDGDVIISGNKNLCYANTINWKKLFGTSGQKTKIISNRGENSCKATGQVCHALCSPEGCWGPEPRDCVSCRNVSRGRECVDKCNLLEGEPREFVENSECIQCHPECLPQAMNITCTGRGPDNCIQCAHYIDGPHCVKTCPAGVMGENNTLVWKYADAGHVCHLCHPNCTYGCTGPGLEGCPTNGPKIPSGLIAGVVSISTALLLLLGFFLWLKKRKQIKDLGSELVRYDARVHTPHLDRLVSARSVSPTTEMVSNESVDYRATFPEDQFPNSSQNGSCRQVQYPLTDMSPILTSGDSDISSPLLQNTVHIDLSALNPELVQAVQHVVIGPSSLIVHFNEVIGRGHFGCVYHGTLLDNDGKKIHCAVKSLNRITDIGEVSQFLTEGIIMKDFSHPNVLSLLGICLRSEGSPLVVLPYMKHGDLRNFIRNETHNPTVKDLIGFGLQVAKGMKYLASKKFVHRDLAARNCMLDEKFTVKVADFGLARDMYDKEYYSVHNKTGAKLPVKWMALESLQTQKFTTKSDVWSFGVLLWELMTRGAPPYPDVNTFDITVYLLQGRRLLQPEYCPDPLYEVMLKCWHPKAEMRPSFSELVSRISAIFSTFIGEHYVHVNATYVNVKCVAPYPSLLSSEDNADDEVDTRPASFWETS
row,SMILES,Met Kinase % Inhibition (P.130) [%]
1,Cc1c(Br)ccc2c1C(=Cc1cccc(F)c1O)C(=O)N2 [10734/C08],93.2
2,Cc1c(Br)ccc2c1C(=Cc1ccc(O)c(Br)c1)C(=O)N2 [10734/C09],88.6
3,Cc1c(Br)ccc2c1C(=Cc1ccc(C(C)(C)C)cc1)C(=O)N2 [10734/C10],11.6
4,Cc1c(Br)ccc2c1C(=Cc1ccc(Br)s1)C(=O)N2 [10734/C11],23.9
5,CCOc1cccc(C=C2C(=O)Nc3ccc(S(=O)(=O)NC)cc32)c1O [10734/D02],46.0
6,CNS(=O)(=O)c1ccc2c(c1)C(=Cc1cc(Cl)cc(Cl)c1O)C(=O)N2 [10734/D03],78.6
7,CNS(=O)(=O)c1ccc2c(c1)C(=Cc1cc(Cl)ccc1O)C(=O)N2 [10734/D04],46.9
8,CCN(CC)c1ccc(C=C2C(=O)Nc3ccc(S(=O)(=O)NC)cc32)c(O)c1 [10734/D05],55.0
9,CNS(=O)(=O)c1ccc2c(c1)C(=Cc1ccc([N+](=O)[O-])cc1)C(=O)N2 [10734/D06],30.6
10,CNS(=O)(=O)c1ccc2c(c1)C(=Cc1cc(Br)cc(Br)c1O)C(=O)N2 [10734/D07],92.0
11,CNS(=O)(=O)c1ccc2c(c1)C(=Cc1cccc(F)c1O)C(=O)N2 [10734/D08],49.8
12,CNS(=O)(=O)c1ccc2c(c1)C(=Cc1ccc(O)c(Br)c1)C(=O)N2 [10734/D09],88.0
13,CNS(=O)(=O)c1ccc2c(c1)C(=Cc1ccc(C(C)(C)C)cc1)C(=O)N2 [10734/D10],20.6
14,CNS(=O)(=O)c1ccc2c(c1)C(=Cc1ccc(Br)s1)C(=O)N2 [10734/D11],33.9
15,CCOc1cccc(C=C2C(=O)Nc3ccc(S(=O)(=O)Nc4ccc(C(F)(F)F)cc4)cc32)c1O [10734/E02],66.9
16,O=C1Nc2ccc(S(=O)(=O)Nc3ccc(C(F)(F)F)cc3)cc2C1=Cc1cc(Cl)cc(Cl)c1O [10734/E03],99.3
17,O=C1Nc2ccc(S(=O)(=O)Nc3ccc(C(F)(F)F)cc3)cc2C1=Cc1cc(Cl)ccc1O [10734/E04],88.9
18,CCN(CC)c1ccc(C=C2C(=O)Nc3ccc(S(=O)(=O)Nc4ccc(C(F)(F)F)cc4)cc32)c(O)c1 [10734/E05],63.6
19,O=C1Nc2ccc(S(=O)(=O)Nc3ccc(C(F)(F)F)cc3)cc2C1=Cc1ccc([N+](=O)[O-])cc1 [10734/E06],50.6
20,O=C1Nc2ccc(S(=O)(=O)Nc3ccc(C(F)(F)F)cc3)cc2C1=Cc1cc(Br)cc(Br)c1O [10734/E07],100.8
21,O=C1Nc2ccc(S(=O)(=O)Nc3ccc(C(F)(F)F)cc3)cc2C1=Cc1cccc(F)c1O [10734/E08],89.1
22,O=C1Nc2ccc(S(=O)(=O)Nc3ccc(C(F)(F)F)cc3)cc2C1=Cc1ccc(O)c(Br)c1 [10734/E09],96.2
23,CC(C)(C)c1ccc(C=C2C(=O)Nc3ccc(S(=O)(=O)Nc4ccc(C(F)(F)F)cc4)cc32)cc1 [10734/E10],27.9
24,O=C1Nc2ccc(S(=O)(=O)Nc3ccc(C(F)(F)F)cc3)cc2C1=Cc1ccc(Br)s1 [10734/E11],67.1

row,SMILES,Met Kinase % Inhibition (P.130) [%]
1,CCOc1cccc(C=C2C(=O)Nc3ccc(S(=O)(=O)N4CCOCC4)cc32)c1O [10734/F02],55.0
2,O=C1Nc2ccc(S(=O)(=O)N3CCOCC3)cc2C1=Cc1cc(Cl)cc(Cl)c1O [10734/F03],86.8
3,O=C1Nc2ccc(S(=O)(=O)N3CCOCC3)cc2C1=Cc1cc(Cl)ccc1O [10734/F04],76.5
4,CCN(CC)c1ccc(C=C2C(=O)Nc3ccc(S(=O)(=O)N4CCOCC4)cc32)c(O)c1 [10734/F05],73.8
5,O=C1Nc2ccc(S(=O)(=O)N3CCOCC3)cc2C1=Cc1ccc([N+](=O)[O-])cc1 [10734/F06],64.2
6,O=C1Nc2ccc(S(=O)(=O)N3CCOCC3)cc2C1=Cc1cc(Br)cc(Br)c1O [10734/F07],95.7
7,O=C1Nc2ccc(S(=O)(=O)N3CCOCC3)cc2C1=Cc1cccc(F)c1O [10734/F08],66.3
8,O=C1Nc2ccc(S(=O)(=O)N3CCOCC3)cc2C1=Cc1ccc(O)c(Br)c1 [10734/F09],93.9
9,CC(C)(C)c1ccc(C=C2C(=O)Nc3ccc(S(=O)(=O)N4CCOCC4)cc32)cc1 [10734/F10],44.8
10,O=C1Nc2ccc(S(=O)(=O)N3CCOCC3)cc2C1=Cc1ccc(Br)s1 [10734/F11],47.3
11,CCOc1cccc(C=C2C(=O)Nc3ccc(CCCl)cc32)c1O [10734/G02],63.6
12,O=C1Nc2ccc(CCCl)cc2C1=Cc1cc(Cl)cc(Cl)c1O [10734/G03],93.4
13,O=C1Nc2ccc(CCCl)cc2C1=Cc1cc(Cl)ccc1O [10734/G04],72.1
14,CCN(CC)c1ccc(C=C2C(=O)Nc3ccc(CCCl)cc32)c(O)c1 [10734/G05],57.7
15,O=C1Nc2ccc(CCCl)cc2C1=Cc1ccc([N+](=O)[O-])cc1 [10734/G06],43.1
16,O=C1Nc2ccc(CCCl)cc2C1=Cc1cc(Br)cc(Br)c1O [10734/G07],96.6
17,O=C1Nc2ccc(CCCl)cc2C1=Cc1cccc(F)c1O [10734/G08],82.2
18,O=C1Nc2ccc(CCCl)cc2C1=Cc1ccc(O)c(Br)c1 [10734/G09],84.7
19,CC(C)(C)c1ccc(C=C2C(=O)Nc3ccc(CCCl)cc32)cc1 [10734/G10],19.3
20,O=C1Nc2ccc(CCCl)cc2C1=Cc1ccc(Br)s1 [10734/G11],20.2
21,CCOc1cccc(C=C2C(=O)Nc3c(Br)cc(Br)c(C)c32)c1O [10734/H02],48.3
22,Cc1c(Br)cc(Br)c2c1C(=Cc1cc(Cl)cc(Cl)c1O)C(=O)N2 [10734/H03],90.3
23,Cc1c(Br)cc(Br)c2c1C(=Cc1cc(Cl)ccc1O)C(=O)N2 [10734/H04],64.2
